Columns and labels:
[1] = test system: growth hormone receptor mRNA; assay: Growth hormone receptor mRNA levels in liver, two-week mouse study; format: in vivo; conditions: 30 mg/kg
Description: (§1) A two-week study was done in similar fashion to the one-week study in Example 18, this time using ISIS 227446 at doses of 3, 5, 10, 20 and 30 mg/kg. The mismatch control was given at the same doses. Mice were treated with antisense compound or saline every other day for 14 days.
Growth hormone receptor mRNA levels in liver tissue samples from treated and untreated mice in this two-week study were assayed. The growth hormone receptor antisense inhibitor ISIS 227446 reduced growth hormone receptor mRNA levels in liver after the two-week study by 50% at the 20 mg/kg dose relative to saline control (p<0.001). The 30 mg/kg dose of ISIS 227446 yielded a 53% decrease in growth hormone receptor mRNA (p<0.0001). The mismatch control oligonucleotide ISIS 261303 (SEQ ID NO: 267), at 30 mg/kg, reduced growth hormone receptor mRNA levels by approximately 3%.

[2] = test system: serum insulin-like growth factor-I; assay: Serum IGF-I by radioimmunoassay, 1 week pilot study in Balb/C(a) mice; format: in vivo, mouse; conditions: for % IGF-I reduction: 30 mg/kg once every 2 days, serum IGF-I at day 7 compared to saline control at day 7
Description: Forty male Balb/C(a) mice weighing 9 to 10 g were placed into cages, 4 animals per cage, and allowed to assimilate into their environment with new littermates ˜1 week prior (Day −7) to the commencement of 1 week study. Mice of this age would be at their maximum growth rate. Their body weights were measured and recorded every second day during this period. When mice weighed 11 g (day −2), a blood sample was collected under anesthesia as described below, and a serum IGF-I assay was performed to determine pre-treatment values and to aid in the assigning of mice to treatment groups in order to reduce animal variability. To obtain the blood sample, the animals were anaesthetized with pentobarbital (50 mg/kg i.p.) and non-fasting blood samples collected exactly 5 minutes later from the retrobulbar plexus through heparinized capillary tubes under light ether anesthesia. The 40 animals were placed into five groups with each group having a similar weight average and similar IGF-I average concentration for the trial.
Animals (n=8/group) were designated to the following five treatment groups:
Saline, antisense, mismatch control and octreotide samples were prepared, and coded for blinding. Animals were given a subcutaneous dose of saline every second day, and mismatch control or antisense with administration on days 0, 2, 4, 6. Animals were given twice daily doses of 25 μg octreotide. Animals were housed 4 per cage, for the duration of one week. They had access to a pre-determined quantity of standard mouse food and water at all times throughout the experiment. They were housed in a quiet, temperature- and humidity-maintained environment for the entirety of the study. At day 0 and before treatment on each day or second day, the animals had their body weight and food intake measured, enabling the correct dose of agent to be administered. The animals were monitored closely for any changes in fur, skin, eye, locomotion or other changes in behavior. No problems were observed. Every second day from day −7 to day 7 body weight and food intake were measured.
On day 7, one day after the last dose of antisense, and/or after the last octreotide dose, the animals were anaesthetized with pentobarbital (50 mg/kg i.p.) and non-fasting blood samples collected exactly 5 minutes later from the retrobulbar plexus through heparinized capillary tubes under light ether anesthesia (as on day −7 and 0).
At day −2 and day 7, serum IGF-I measurement was done by radioimmunoassay. Serum IGF-I level is the most widely used measure of growth hormone biological activity in human therapy. It is used to measure the efficacy of growth hormone antagonist treatments like Trovert, which block cells' responsiveness to excess growth hormone, and dopamine agonists and octreotide somatostatin […] drugs that block growth hormone secretion from the pituitary.

growth hormone receptor = assay: [125I] hGH specific binding assay on liver microsomal membranes of treated mice; format: in vivo, mouse
Description: Specific binding assays were carried out with liver tissue using iodinated human growth hormone [^125I] hGH.
Microsomal membrane preparations were obtained as follows. 400 mg of tissue powder was homogenized in cold homogenizing buffer (50 mM Tris/HCl, 250 mM sucrose, pH 7.4). This was centrifuged at 2000 rpm for 10 min at 3° C. and the supernatant was saved. This was centrifuged again at 15,000 rpm for 20 min. Pellets were resuspended in 0.5 ml of RRA buffer with inhibitor (50 mM Tris, 20 mM MgC12, pH 7.4). Microsomal preparation samples were stored at −80° C. until the specific binding assay.
The [^125I] hGH specific binding assay was done as follows. Four glass tubes were set up for each sample, two for (−), two for (+). Different sample and solutions were added in each tube as follows (i) 0.2 ml RRA buffer (50 mM Tris, 20 mM MgCl2, 0.1% BSA, pH 7.4); (ii) 0.1 ml membrane (1/2 or 1/4 dilution); (iii) 0.1 ml bGH (10 μg/ml) for the (+) tube or 0.1 ml RRA buffer for the (−) tube; and (iv) 0.1 ml [^125I]-hGH tracer.
Samples were incubated at 4° C. with shaking overnight. The reaction was stopped with 2.5 ml of cold RRA, and the sample centrifuged at 2800 rpm for 25 min at 4° C. Supernatant was aspirated and pellets counted using the γ-counter. The specific binding capacity was calculated as: CPM(−)-CPM(+) Protein content of the microsomal samples was determined by the BCA protein assay.

serum IGF-I [3] = assay: Serum IGF-I, two-week mouse study; format: in vivo; conditions: for % decrease relative to 3 mg/kg ISIS 261303: day 14
Description: as §1
P-values were determined by t-test.

[4] = test system: serum insulin-like growth factor-I; conditions: patients with acromegaly; cited from earlier work
[5] = test system: serum insulin-like growth factor-I; assay: Serum IGF-I by radioimmunoassay, 1 week pilot study in Balb/C(a) mice; format: in vivo, mouse
sIGF-1 = conditions: cited from earlier work
serum IGF-I [6] = conditions: high doses, 12 week study, cited from earlier work
[7] = 30 mg/kg every second day for one week, liver membranes

In the case of “ISIS 261303: negative control oligonucleotide, SEQ ID NO: 267, 8-base mismatch to ISIS 227446 (AGAGAGCTACCTAACTAACA; chemistry not given here) [reference compound]”, the “decrease in growth hormone receptor mRNA in liver” value [1] is reported as “approximately 3%”, the “% IGF-I reduction” value [2] is reported as 21% and the “% IGF-I reduction” value ([2]; listed as Mismatch) is reported as 20.98%. The “IGF-I (ng/ml) Day 7” value ([2]; 30 mg/kg sc once every 2 days (days 0, 2, 4, 6)) was 81.1 ± 19.16 ng/mL, the “IGF-I (ng/ml) Day −2” value ([2]; pre-treatment value of the group given 30 mg/kg sc once every 2 days) was 184.87 ± 55.6 ng/mL and the “Specific binding/mg protein (cpm) ¼ dilution” value (growth hormone receptor; [7]) was 8431 ± 2663 cpm. For the same substance, the “Specific binding/mg protein (cpm) ½ dilution” value (growth hormone receptor; [7]) was 7090 ± 1877 cpm, the “growth hormone receptor levels (growth hormone binding activity), % of control (saline) group” value (growth hormone receptor; 30 mg/kg sc every second day for one week) was “no effect” and the “Day 14 serum IGF-I” value (serum IGF-I [3]; 3 mg/kg every other day for 14 days) was 184 ng/mL. For the same substance, the “% decrease relative to 3 mg/kg ISIS 261303” value (serum IGF-I [3]; 3 mg/kg) was 0%, the “Day 14 serum IGF-I” value (serum IGF-I [3]; 5 mg/kg every other day for 14 days) was 186 ng/mL and the “% decrease relative to 3 mg/kg ISIS 261303” value (serum IGF-I [3]; 5 mg/kg) was 0%. The “Day 14 serum IGF-I” value (serum IGF-I [3]; 10 mg/kg every other day for 14 days) was 174 ng/mL, the “% decrease relative to 3 mg/kg ISIS 261303” value (serum IGF-I [3]; 10 mg/kg) was 5% and the “Day 14 serum IGF-I” value (serum IGF-I [3]; 20 mg/kg every other day for 14 days) was 164 ng/mL. For the same substance, the “% decrease relative to 3 mg/kg ISIS 261303” value (serum IGF-I [3]; 20 mg/kg) was 11%, the “Day 14 serum IGF-I” value (serum IGF-I [3]; 30 mg/kg every other day for 14 days) was 130 ng/mL and the “% decrease relative to 3 mg/kg ISIS 261303” value (serum IGF-I [3]; 30 mg/kg) was 29%.
For octreotide, the “effect on serum IGF-I levels at day 7” value ([2]; 2 doses per day at 25 μg each) is given as “no effect”, the “patients in whom treatment is effective” value [4] is given as 60-65% and the “IGF-I (ng/ml) Day 7” value ([5]; 25 μg twice per day) is given as 114.34 ± 41.36 ng/mL. For the same substance, the “IGF-I (ng/ml) Day −2” value ([5]; pre-treatment value of the group given 25 μg/kg twice per day) was 199.72 ± 44.47 ng/mL, the “reduction of sIGF-1” value (sIGF-1; 5000 μg/day sc, maximally tolerated doses, 15 month study) was 51% and the ocular disease (sIGF-1; vs placebo of 42%) was 27%. For the same substance, the “reduction of serum IGF-I” value (serum IGF-I [6]; 11 patients) was 45% and the “reduction of glomerular filtration rate relative to placebo” value (serum IGF-I [6]) was 22-33%.

Source: US8637484B2, “Modulation of growth hormone receptor expression and insulin-like growth factor expression” (Antisense Therapeutic Limited, priority 2003, dated 2014)
